Data published in US11279735B2, “Cyclic peptide antibiotics” (priority 2017, dated 2022).
≈ marks a conversion by molar mass, not a printed value. *1 amine or outer side, *2 acyl side, *3 side chain or, on linkers, in order; H or OH if unused. Where a SMILES comes first, the peptide text is derived from it. [ ]: non-standard residue; d: D form. The star is where a group is joined. X19 = CCCC[C@@H](OC[C@@H](C)N[*:1])[C@@H](CC1CC1)C(=O)[*:2]; X6 = CCCCCC[C@@H](OC[C@@H](CC)N[*:1])[C@@H](C)C(=O)[*:2]; X1 = CCCCCC[C@@H](C(=O)[*:2])[C@@H](C)OC[C@@H](C)N[*:1]; X17 = CCCCCC[C@@H](O[C@H](C)CN[*:1])[C@@H](C)C(=O)[*:2]; X2 = CCCCCC[C@@H](OC[C@@H](C)N[*:1])[C@@H](C)C(=O)[*:2]; Cyclobutyl(trans-3-NH2) = N[C@H]1C[C@H](*)C1; Gly(cHept) = N[C@H](C(=O)O)C1CCCCCC1; aThr = C[C@H](O)[C@H](N)C(=O)O; NMeL = CN[C@@H](CC(C)C)C(=O)O; Chg = N[C@H](C(=O)O)C1CCCCC1; NMeNva = CCC[C@H](NC)C(=O)O; X8 = NC[C@H]1C[C@H](*)C1; Dap = NC[C@H](N)C(=O)O; Ethyl(2-NH2) = NCC*; X15 = OC[C@@H](O)C*

Each molecule was assayed on Escherichia coli (E. coli) strain CFT073 ATCC 700928. Conditions: ATCC 700928, 22 h.
Format: cell-based
Outline: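 MICs were read after 22 h at 35 °C, with bacteria added to a final OD600 of 0.0005. Compounds were serially diluted 2-fold over ten concentrations from a top of 64, 4, 0.5 or 0.13 μg/mL (protocols 1–4). Medium was cation-adjusted Mueller Hinton II broth plus 0.002% Tween-80, following CLSI M07-A8.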

Row | MIC [µM] | SMILES
1 | 0.78 (≈ 0.55 µg/mL) | CCC[C@H]1C(=O)N[C@@H](C2CCCCCC2)C(=O)N[C@@H](CN)C(=O)N[C@@H]([C@H](C)O)C(=O)NCC(=O)O[C@H](CC2CC3CCC2C3)[C@@H](C)C(=O)N1C (stereo partly drawn) [Example 134, (6S,9S,12S,15S,18R,19R)-9-(aminomethyl)-12-cycloheptyl-16,18-dimethyl-19-(norbornan-2-ylmethyl)-15-propyl-6-[(1S)-1-hydroxyethyl]-1-oxa-4,7,10,13,16-pentazacyclononadecane-2,5,8,11,14,17-hexone]
2 | 3.7 (≈ 2.82 µg/mL) | CCCCCC[C@H]1OC(=O)CNC(=O)[C@H]([C@H](C)O)NC(=O)[C@H](CN)NC(=O)[C@H](C2CCCCC2)NC(=O)[C@H](CC(C)C)N(C)C(=O)[C@@H]1CC1CCCCC1 [Example 135, (6S,9S,12S,15S,18R,19R)-9-(aminomethyl)-12-cyclohexyl-18-(cyclohexylmethyl)-19-hexyl-15-isobutyl-16-methyl-6-[(1S)-1-hydroxyethyl]-1-oxa-4,7,10,13,16-pentazacyclononadecane-2,5,8,11,14,17-hexone]
3 | 8.8 (≈ 6.52 µg/mL) | CCCCCC[C@H]1OC[C@@H](C)NC(=O)[C@H](COC[C@H](O)CO)NC(=O)[C@H](CN)NC(=O)[C@H](C2CCCCC2)NC(=O)[C@H](CC(C)C)N(C)C(=O)[C@@H]1C [Example 136, (3R,6S,9S,12S,15S,18R,19R)-9-(aminomethyl)-12-cyclohexyl-19-hexyl-15-isobutyl-3,16,18-trimethyl-6-[[(2R)-2,3-dihydroxypropoxy]methyl]-1-oxa-4,7,10,13,16-pentazacyclononadecane-5,8,11,14,17-pentone] (cyclo([Chg][Dap]S(X15)[X2][NMeL]))
4 | 12 (≈ 8.52 µg/mL) | CCCCCC[C@H]1OC[C@@H](C)NC(=O)[C@H](COCCN)NC(=O)[C@H](CN)NC(=O)[C@H](C2CCCCC2)NC(=O)[C@H](CC(C)C)N(C)C(=O)[C@@H]1C [Example 138, (3R,6S,9S,12S,15S,18R,19R)-6-(2-aminoethoxymethyl)-9-(aminomethyl)-12-cyclohexyl-19-hexyl-15-isobutx1-3,16,18-trimethyl-1-oxa-4,7,10,13,16-pentazacyclononadecane-5,8,11,14,17-pentone] (cyclo([Chg][Dap]S(Ethyl(2-NH2))[X2][NMeL]))
5 | 18 (≈ 13 µg/mL) | CCCCCC[C@H]1OC(=O)CNC(=O)[C@H](CNC(=O)CN)NC(=O)[C@H](CN)NC(=O)[C@H](C2CCCCC2)NC(=O)[C@H](CC(C)C)N(C)C(=O)[C@@H]1C [Example 139, 2-amino-N-[[(6S,9S,12S,15S,18R,19R)-9-(aminomethyl)-12-cyclohexyl-19-hexyl-15-isobutyl-16,18-dimethyl-2,5,8,11,14,17-hexaoxo-1-oxa-4,7,10,13,16-pentazacyclononadec-6-yl]methyl]acetamide]
6 | 35 (≈ 23.8 µg/mL) | CCCCCC[C@H]1O[C@H](C)CNC(=O)[C@H]([C@H](C)O)NC(=O)[C@H](CN)NC(=O)[C@H](C2CCCCC2)NC(=O)[C@H](CC(C)C)N(C)C(=O)[C@@H]1C [Example 140, (2R,6S,9S,12S,15S,18R,19R)-9-(aminomethyl)-12-cyclohexyl-19-hexyl-15-isobutyl-2,16,18-trimethyl-6-[(1S)-1-hydroxyethyl]-1-oxa-4,7,10,13,16-pentazacyclononadecane-5,8,11,14,17-pentone] (cyclo([Chg][Dap][aThr][X17][NMeL]))
7 | 8.8 (≈ 6.17 µg/mL) | CCCCCC[C@H]1OC(=O)CNC(=O)[C@H]([C@H](C)O)NC(=O)[C@H](CN)NC(=O)[C@H](C2Cc3ccccc3C2)NC(=O)[C@H](CCC)N(C)C(=O)[C@@H]1C [Example 142, (6S,9S,12S,15S,18R,19R)-9-(aminomethyl)-19-hexyl-12-indan-2-yl-16,18-dimethyl-15-propyl-6-[(1S)-1-hydroxyethyl]-1-oxa-4,7,10,13,16-pentazacyclononadecane-2,5,8,11,14,17-hexone]
8 | 25 (≈ 18.8 µg/mL) | CCCCCC[C@H]1OC(=O)CNC(=O)[C@H](CNC(=O)CN(C)C)NC(=O)[C@H](CN)NC(=O)[C@H](C2CCCCC2)NC(=O)[C@H](CC(C)C)N(C)C(=O)[C@@H]1C [Example 143, 2-(dimethylamino)-N-[[(6S,9S,12S,15S,18R,19R)-9-(aminomethyl)-12-cyclohexyl-19-hexyl-15-isobutyl-16,18-dimethyl-2,5,8,11,14,17-hexaoxo-1-oxa-4,7,10,13,16-pentazacyclononadec-6-yl]methyl]acetamide]
9 | 2.2 (≈ 1.53 µg/mL) | CCCCCC[C@H]1OC[C@@H](CC)NC(=O)[C@H]([C@H](C)O)NC(=O)[C@H](CN)NC(=O)[C@H](C2CCCCC2)NC(=O)[C@H](CC(C)C)N(C)C(=O)[C@@H]1C [Example 144, (3R,6S,9S,12S,15S,18R,19R)-9-(aminomethyl)-12-cyclohexyl-3-ethyl-19-hexyl-15-isobutyl-16,18-dimethyl-6-[(1S)-1-hydroxyethyl]-1-oxa-4,7,10,13,16-pentazacyclononadecane-5,8,11,14,17-pentone] (cyclo([Chg][Dap][aThr][X6][NMeL]))
10 | 12 (≈ 8.84 µg/mL) | CCCCCC[C@H]1OC(=O)CNC(=O)[C@H](CNC(=O)CCN)NC(=O)[C@H](CN)NC(=O)[C@H](C2CCCCC2)NC(=O)[C@H](CC(C)C)N(C)C(=O)[C@@H]1C [Example 145, 3-amino-N-[[(6S,9S,12S,15S,18R,19R)-9-(aminomethyl)-12-cyclohexyl-19-hexyl-15-isobutyl-16,18-dimethyl-2,5,8,11,14,17-hexaoxo-1-oxa-4,7,10,13,16-pentazacyclononadec-6-yl]methyl]propanamide]
11 | 12 (≈ 8.15 µg/mL) | CCCC[C@H]1OC[C@@H](C)NC(=O)[C@H]([C@H](C)O)NC(=O)[C@H](CN)NC(=O)[C@H](C2CCCCC2)NC(=O)[C@H](CCC)N(C)C(=O)[C@@H]1CC1CC1 [Example 147, (3R,6S,9S,12S,15S,18R,19R)-9-(Aminomethyl)-19-butyl-12-cyclohexyl-18-(cyclopropylmethyl)-6-((S)-1-hydroxyethyl)-3,16-dimethyl-15-propyl-1-oxa-4,7,10,13,16-pentaazacyclononadecane-5,8,11,14,17-pentaone] (cyclo([Chg][Dap][aThr][X19][NMeNva]))
12 | 8.8 (≈ 6.67 µg/mL) | CCCCCC[C@H]1OC[C@@H](C)NC(=O)[C@H]([C@H](C)O)NC(=O)[C@H](CN)NC(=O)[C@H](C2CCN(c3ccccc3)CC2)NC(=O)[C@H](CC(C)C)N(C)C(=O)[C@@H]1C [Example 148, (3R,6S,9S,12S,15S,18R,19R)-9-(Aminomethyl)-19-hexyl-6-((S)-1-hydroxyethyl)-15-isobutyl-3,16,18-trimethyl-12-(1-phenylpiperidin-4-yl)-1-oxa-4,7,10,13,16-pentaazacyclononadecane-5,8,11,14,17-pentaone]
13 | 25 (≈ 16.7 µg/mL) | CCCCCC[C@H]1C(=O)N(C)[C@@H](CCC)C(=O)N[C@@H](C2CCCCC2)C(=O)N[C@@H](CN)C(=O)N[C@@H]([C@H](C)O)C(=O)N[C@H](C)CO[C@@H]1C [Example 150, (3R,6S,9S,12S,15S,18R,19R)-9-(Aminomethyl)-12-cyclohexyl-18-hexyl-6-((S)-1-hydroxyethyl)-3,16,19-trimethyl-15-propyl-1-oxa-4,7,10,13,16-pentaazacyclononadecane-5,8,11,14,17-pentaone] (cyclo([Chg][Dap][aThr][X1][NMeNva]))
14 | 6.3 (≈ 4.28 µg/mL) | CCCCCC[C@H]1OC[C@@H](C)NC(=O)[C@H](CN)NC(=O)[C@H](CN)NC(=O)[C@H](C2CCCCCC2)NC(=O)[C@H](CC(C)C)N(C)C(=O)[C@@H]1C [Example 151, (3R,6S,9S,12S,15S,18R,19R)-6,9-Bis(aminomethyl)-12-cycloheptyl-19-hexyl-15-isobutyl-3,16,18-trimethyl-1-oxa-4,7,10,13,16-pentazacyclononadecane-5,8,11,14,17-pentone] (cyclo([Dap][Dap][X2][NMeL][Gly(cHept)]))

Row | SMILES | MIC [µM]
15 | CCC[C@H]1C(=O)N[C@@H](C2CCCCCC2)C(=O)N[C@@H](CN)C(=O)N[C@@H](CO[C@H]2C[C@H](N)C2)C(=O)NCC(=O)O[C@H](CCC2CC3CCC2C3)[C@@H](C)C(=O)N1C (stereo partly drawn) [Example 137, (6S,9S,12S,15S,18R,19R)-6-[(3-aminocyclobutoxy)methyl]-9-(aminomethyl)-12-cycloheptyl-16,18-dimethyl-19-(2-norbornan-2-ylethyl)-15-propyl-1-oxa-4,7,10,13,16-pentazacyclononadecane-2,5,8,11,14,17-hexone] | 0.78 (≈ 0.604 µg/mL)
16 | CCC[C@H]1C(=O)N[C@@H](C2CCCCCC2)C(=O)N[C@@H](CN)C(=O)N[C@@H](CO[C@H]2C[C@H](N)C2)C(=O)NCC(=O)O[C@H](CC2CC3CCC2C3)[C@@H](C)C(=O)N1C (stereo partly drawn) [Example 141, (6S,9S,12S,15S,18R,19R)-6-[(3-aminocyclobutoxy)methyl]-9-(aminomethyl)-12-cycloheptyl-16,18-dimethyl-19-(norbornan-2-ylmethyl)-15-propyl-1-oxa-4,7,10,13,16-pentazacyclononadecane-2,5,8,11,14,17-hexone] | 2.2 (≈ 1.67 µg/mL)
17 | CCCCCC[C@H]1OC[C@@H](C)NC(=O)[C@H](CO[C@H]2C[C@H](N)C2)NC(=O)[C@H](CN)NC(=O)[C@H](C2CCCCCC2)NC(=O)[C@H](CCC)N(C)C(=O)[C@@H]1C [Example 146, (3R,6S,9S,12S,15S,18R,19R)-6-[(3-aminocyclobutoxy)methyl]-9-(aminomethyl)-12-cycloheptyl-19-hexyl-3,16,18-trimethyl-15-propyl-1-oxa-4,7,10,13,16-pentazacyclononadecane-5,8,11,14,17-pentone] (cyclo([Dap]S(Cyclobutyl(trans-3-NH2))[X2][NMeNva][Gly(cHept)])) | 6.3 (≈ 4.64 µg/mL)
18 | CCCCCC[C@H]1OC[C@@H](C)NC(=O)[C@H](CO[C@H]2C[C@H](CN)C2)NC(=O)[C@H](CN)NC(=O)[C@H](C2CCCCC2)NC(=O)[C@H](CC(C)C)N(C)C(=O)[C@@H]1C [Example 149, (3R,6S,9S,12S,15S,18R,19R)-9-(Aminomethyl)-6-(((1r,3,S)-3-(aminomethyl)cyclobutoxy)methyl)-12-cyclohexyl-19-hexyl-15-isobutyl-3,16,18-trimethyl-1-oxa-4,7,10,13,16-pentaazacyclononadecane-5,8,11,14,17-pentaone] (cyclo([Chg][Dap]S(X8)[X2][NMeL])) | 8.8 (≈ 6.6 µg/mL)
